pEC50: −log10 of the molar value.
Tests used:
[1] = Inhibition of HIV1 reverse transcriptase Y181C mutant infected in human MT2 cells assessed as protection against viral infection by MTT assay
[2] = Inhibition of HIV1 reverse transcriptase K103N/Y181C double mutant infected in human MT2 cells assessed as protection against viral infection by MTT assay

| SMILES | pEC50 [1] | pEC50 [2] |
| --- | --- | --- |
| N#Cc1ccc2ccc(Oc3ccc(F)cc3OCCn3ccc(=O)[nH]c3=O)cc2c1 | 5.92 | 5.03 |
| COCc1cc(Oc2ccccc2OCCn2ccc(=O)[nH]c2=O)c(C)c2cc(C#N)ccc12 | 6.16 | 6.10 |
| CCOc1cc(Oc2ccccc2OCCn2ccc(=O)[nH]c2=O)c(C)c2cc(C#N)ccc12 | 6.70 | 6.10 |
| Cc1cc(Oc2ccccc2OCCn2ccc(=O)[nH]c2=O)c(Cl)c2cc(C#N)ccc12 | 7.38 | 6.92 |
| N#Cc1ccc2ccc(Oc3ccccc3OCCn3ccc(=O)[nH]c3=O)cc2c1 | 5.59 | 5.40 |
| Cc1cc(Oc2ccccc2OCCn2ccc(=O)[nH]c2=O)c(C)c2cc(C#N)ccc12 | 7.21 | 6.82 |
| Cc1c(Oc2ccccc2OCCn2ccc(=O)[nH]c2=O)cc(Cl)c2ccc(C#N)cc12 | 7.24 | – |
| Cc1c(Oc2ccc(F)cc2OCCn2ccc(=O)[nH]c2=O)cc(Cl)c2ccc(C#N)cc12 | 7.57 | 6.30 |
| COc1cc(Oc2ccccc2OCCn2ccc(=O)[nH]c2=O)c(C)c2cc(C#N)ccc12 | 6.17 | 5.80 |
| Cc1cc(Oc2ccc(F)cc2OCCn2ccc(=O)[nH]c2=O)c(F)c2cc(C#N)ccc12 | 5.92 | 5.42 |
| N#Cc1cc2c(Oc3ccc(F)cc3OCCn3ccc(=O)[nH]c3=O)cc(F)cn2c1 | 6.60 | 8.00 |
| CCc1cc(Oc2ccccc2OCCn2ccc(=O)[nH]c2=O)c(C)c2cc(C#N)ccc12 | 6.82 | 6.52 |
| Cc1cc(Oc2ccccc2OCCn2ccc(=O)[nH]c2=O)cc2cc(C#N)ccc12 | 6.10 | 5.54 |
| N#Cc1ccc2c(F)cc(Oc3ccc(F)cc3OCCn3ccc(=O)[nH]c3=O)c(Cl)c2c1 | 7.14 | 5.80 |
| Cc1c(Oc2ccc(F)cc2OCCn2ccc(=O)[nH]c2=O)cc(F)c2ccc(C#N)cc12 | 7.51 | 6.01 |
| Cc1cc2ccc(C#N)cc2c(C)c1Oc1ccccc1OCCn1ccc(=O)[nH]c1=O | < 7.00 | 5.77 |
| N#Cc1ccc2cc(Oc3ccccc3OCCn3ccc(=O)[nH]c3=O)ccc2c1 | < 7.00 | 5.25 |
| Cc1c(Oc2ccc(Cl)cc2OCCn2ccc(=O)[nH]c2=O)cc(F)c2ccc(C#N)cc12 | 6.48 | < 7.00 |
| N#Cc1ccc2c(F)cc(Oc3ccccc3OCCn3ccc(=O)[nH]c3=O)c(Cl)c2c1 | 7.05 | 6.51 |
| Cc1c(Oc2ccccc2OCCn2ccc(=O)[nH]c2=O)cc(F)c2ccc(C#N)cc12 | 7.22 | 6.05 |
| Cc1c(Oc2ccccc2OCCn2ccc(=O)[nH]c2=O)c(C)c2cc(C#N)ccc2c1C | – | 6.10 |
| N#Cc1ccc2c(Cl)cc(Oc3ccccc3OCCn3ccc(=O)[nH]c3=O)cc2c1 | 6.05 | 6.05 |
| CCCc1cc(Oc2ccccc2OCCn2ccc(=O)[nH]c2=O)c(C)c2cc(C#N)ccc12 | 6.20 | 6.00 |
| Cc1cc(Oc2ccc(F)cc2OCCn2ccc(=O)[nH]c2=O)c(C)c2cc(C#N)ccc12 | 7.55 | 6.39 |
| Cc1c(Oc2ccccc2OCCn2ccc(=O)[nH]c2=O)cc(C(C)C)c2ccc(C#N)cc12 | 6.40 | 7.00 |
| N#Cc1ccc2c(Cl)cc(Oc3ccc(F)cc3OCCn3ccc(=O)[nH]c3=O)cc2c1 | 5.96 | 5.39 |
| Cc1c(Oc2ccccc2OCCn2ccc(=O)[nH]c2=O)cc(CC2CC2)c2ccc(C#N)cc12 | 6.05 | 5.92 |

— BindingDB's records for doi:10.1021/acsmedchemlett.6b00390 (Yale University, 2016)
